Experimental data: ChEMBL document CHEMBL1133974, “Synthesis and in vitro evaluation of a series of diketopiperazine inhibitors of plasminogen activator inhibitor-1” (Bioorg Med Chem Lett, 2001)

Target: T1, Plasminogen activator inhibitor 1 (Homo sapiens, UniProt P05121)
Assay: Tissue plasminogen activator generation in plasmin was evaluated by measuring the ability to inhibit Plasminogen activator inhibitor-1 through fibrin plate assay

T1 sequence (P05121 whole entry): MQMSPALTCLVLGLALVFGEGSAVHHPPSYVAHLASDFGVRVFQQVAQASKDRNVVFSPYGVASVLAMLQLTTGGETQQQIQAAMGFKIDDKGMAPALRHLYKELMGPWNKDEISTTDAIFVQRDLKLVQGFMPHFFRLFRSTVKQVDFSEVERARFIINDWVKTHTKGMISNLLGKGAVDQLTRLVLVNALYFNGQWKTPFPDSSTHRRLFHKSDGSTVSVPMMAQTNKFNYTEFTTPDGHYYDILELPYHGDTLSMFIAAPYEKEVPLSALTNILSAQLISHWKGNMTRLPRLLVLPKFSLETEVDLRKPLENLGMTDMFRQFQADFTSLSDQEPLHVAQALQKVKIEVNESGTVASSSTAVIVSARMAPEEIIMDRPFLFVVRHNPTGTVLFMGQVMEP

IC50 [µM] | SMILES
0.26 | O=C(O)CCCCCCCOc1ccc(/C=c2\[nH]c(=O)/c(=C/c3ccc(NC(=O)c4cccs4)cc3)[nH]c2=O)cc1

Target: T1, Plasminogen activator inhibitor 1
Assay: Tissue plasminogen activator generation in plasmin was evaluated by measuring the ability to inhibit Plasminogen activator inhibitor-1 through complex assay

IC50 [µM] | SMILES
0.51 | O=C(O)CCCCCCCOc1ccc(/C=c2\[nH]c(=O)/c(=C/c3ccc(NC(=O)c4cccs4)cc3)[nH]c2=O)cc1

Target: T1, Plasminogen activator inhibitor 1
Assay: Inhibitory activity of compound against Plasminogen activator inhibitor-1

SMILES | IC50 [µM]
COC(=O)CCCCCCCOc1ccc(/C=c2\[nH]c(=O)/c(=C/c3ccc(NC(=O)c4cccs4)cc3)[nH]c2=O)cc1 | 1.93
O=C(O)CCCCOc1ccc(/C=c2\[nH]c(=O)/c(=C/c3ccccc3)[nH]c2=O)cc1 | 15
COC(=O)CCCCCCC(=O)Nc1ccc(/C=c2\[nH]c(=O)/c(=C/c3ccc(NC(=O)c4cccs4)cc3)[nH]c2=O)cc1 | 4.77
O=C(O)CCCCCCCCC(=O)Nc1ccc(/C=c2\[nH]c(=O)/c(=C/c3ccc(NC(=O)c4cccs4)cc3)[nH]c2=O)cc1 | 0.39
CCN(CC)CCSc1ccc(/C=c2\[nH]c(=O)/c(=C/c3ccccc3)[nH]c2=O)s1 | > 25
O=C(O)c1ccc(/C=c2\[nH]c(=O)/c(=C/c3ccccc3)[nH]c2=O)cc1 | > 25
O=C(O)CCCCOc1ccc(/C=c2\[nH]c(=O)/c(=C/c3ccc(NC(=O)c4cccs4)cc3)[nH]c2=O)cc1 | 1.75
CN(C)CCOc1ccc(/C=c2\[nH]c(=O)/c(=C/c3ccccc3)[nH]c2=O)s1 | > 25
O=C(O)COc1ccc(/C=c2\[nH]c(=O)/c(=C/c3ccccc3)[nH]c2=O)cc1 | > 25
O=C(O)CCCCCCC(=O)Nc1ccc(/C=c2\[nH]c(=O)/c(=C/c3ccc(NC(=O)c4cccs4)cc3)[nH]c2=O)cc1 | 0.52
O=C(O)CCCOc1ccc(/C=c2\[nH]c(=O)/c(=C/c3ccccc3)[nH]c2=O)cc1 | 20
O=C(O)CCCCCCCOc1ccc(/C=c2\[nH]c(=O)/c(=C/c3ccc(NC(=O)c4cccs4)cc3)[nH]c2=O)cc1 | 0.2
CN(C)CC[S+]([O-])c1ccc(/C=c2\[nH]c(=O)/c(=C/c3ccccc3)[nH]c2=O)s1 (stereo unspecified) | > 25

The remaining lines, values ahead:

IC50 [µM] | SMILES
> 25 | CN(C)CCSc1ccc(/C=c2\[nH]c(=O)/c(=C/c3ccc(N(C)C)cc3)[nH]c2=O)s1
17.7 | COC(=O)c1ccc(/C=c2\[nH]c(=O)/c(=C/c3ccc(SCCN(C)C)s3)[nH]c2=O)cc1
12.4 | Cc1ccc(/C=c2\[nH]c(=O)/c(=C/c3ccc(SCCN(C)C)s3)[nH]c2=O)cc1
13.1 | CN(C)CCSc1ccc(/C=c2\[nH]c(=O)/c(=C/c3ccc(Br)cc3)[nH]c2=O)s1
> 25 | CN(C)CCSc1ccc(/C=c2\[nH]c(=O)/c(=C/c3ccc(C#N)cc3)[nH]c2=O)s1
> 25 | CN(C)CCSc1ccc(/C=c2\[nH]c(=O)/c(=C/c3ccccc3Br)[nH]c2=O)s1
6.1 | CN(C)CCSc1ccc(/C=c2\[nH]c(=O)/c(=C/c3ccc(NC(=O)c4ccccc4)cc3)[nH]c2=O)s1
3.5 | CN(C)CCSc1ccc(/C=c2\[nH]c(=O)/c(=C/c3ccccc3)[nH]c2=O)s1
> 25 | CN(C)CCSc1ccc(/C=c2\[nH]c(=O)/c(=C/c3cccc(Cl)c3)[nH]c2=O)s1
10.9 | COc1ccc(/C=c2\[nH]c(=O)/c(=C/c3ccc(SCCN(C)C)s3)[nH]c2=O)cc1
3.1 | CN(C)CCSc1ccc(/C=c2\[nH]c(=O)/c(=C/c3ccc(NC(=O)c4cccs4)cc3)[nH]c2=O)s1
